Legend:
Format in all cases: cell-based
[1] = test system: differentiated SH-SY5Y cells; assay: Intracellular total glutathione (DTNB-GSH recycling assay); conditions: 24 h
Procedure: Total GSH was quantified through the DTNB-GSH recycling assay. Briefly, GSH is oxidized by 5,5′-dithiobis (2-nitrobenzoic acid) (DTNB) producing 5-thio-2-nitrobenzoic acid (TNB) and a glutathione adduct of GSH (GS-TNB). In the presence of NADPH, GS-TNB is reduced by glutathione reductase to 2GSH (recycled). The GSH concentration in the samples is thus proportional to TNB formation, which is measurable at 415 nm.
Intracellular total glutathione (GSH) was measured through the DTNB-GSH recycling assay. […]
The acidic samples and standards (GSH standards prepared in 5% HClO4) were neutralized with ice-cold 0.76 M KHCO3 (1:1) and centrifuged (13,000× g, 10 min at 4 °C). Subsequently, 100 µL of the supernatants were transferred to a 96-well plate, followed by the addition of 65 µL of an extemporaneous reagent solution (3.96 mM DTNB and 0.68 mM NADPH prepared in a 7.5 pH phosphate buffer: 71.5 mM Na2HPO4, 71.5 mM NaH2PO4, and 0.63 mM EDTA) and the plates were incubated for 15 min in a multi-well plate reader (PowerWaveX BioTek Instruments, Winooski, VT, USA) at 30 °C. At the end of the incubation period, 40 µL of a 10 U/mL glutathione reductase (prepared in phosphate buffer) solution was added and the absorbance was then measured, for 3 min, at 415 nm, in kinetic mode to follow the TNB formation. […]

[2] = test system: differentiated SH-SY5Y cells; assay: Mitochondrial membrane potential (JC-1 dye); conditions: 24 h, 0–500 µM, vs control
Procedure: Mitochondrial transmembrane potential (Δѱm) was determined using the JC-1 dye, which can selectively enter the mitochondria and reversibly change the dye’s fluorescent properties depending on the Δѱm. At high Δѱm conditions—representative of healthy cells—JC-1 forms J-aggregates generating red fluorescence. At low Δѱm conditions—representative of unhealthy or apoptotic cells—JC-1 is predominantly a monomer generating green fluorescence.
The mitochondrial membrane potential was evaluated by using the JC-1 probe. SH-SY5Y cells were seeded and differentiated in 48-well plates and, 6 days after seeding, the cells were exposed to the six drugs (0–500 µM) for 24 h, at 37 °C, in a 5% CO2–95% air atmosphere. Subsequently, the medium was removed, and the cells were incubated with 20 µM JC-1 for 30 min, protected from light, at 37 °C, in a 5% CO2–95% air atmosphere. At the end of the incubation period, the cells were centrifuged (300× g, 5 min at room temperature) and washed (warm HBSS with calcium and magnesium) twice. The fluorescence was then measured in a multi-well plate reader: at 535 nm excitation and 595 nm emission wavelengths for J-aggregates; and at 485 nm excitation and 535 nm emission wavelengths for JC-1 monomers (PowerWaveX BioTek Instruments, USA). […] The results were calculated as red/green fluorescence intensity ratios and expressed as percentages of control cells. […]

[3] = test system: differentiated SH-SY5Y cells; assay: Intracellular ATP (luciferin-luciferase bioluminescence assay); conditions: 24 h, 500 μM
Procedure: Intracellular ATP levels were determined, as previously described, through a bioluminescence reaction with luciferase, which catalyzes the formation of light from ATP and luciferin.
Intracellular adenosine triphosphate (ATP) was quantified through the bioluminescent D-luciferin-luciferase assay. The samples used for the intracellular ATP quantification were prepared as described for the “Intracellular Total Glutathione Quantification” assay. The acidic samples and standards (ATP standards prepared in 5% HClO4) were neutralized with ice-cold 0.76 M KHCO3 (1:1) and centrifuged (13,000× g, 10 min at 4 °C). Afterwards, 75 µL of the supernatants were transferred to a white opaque 96-well plate, followed by the addition of 75 µL of luciferin-luciferase solution (0.15 mM luciferin and 3 × 10^6 light unit’s luciferase/mL prepared in a 7.6 pH Tris-Glycine buffer solution: 1 mM Trizma; 10 mM MgSO4; 50 mM glycine; 0.55 mM EDTA and 1% BSA), protected from light. The samples’ bioluminescence (560 nm) was immediately measured in a multi-well plate reader (PowerWaveX BioTek Instruments, Winooski, VT, USA). The ATP content in the samples was normalized to the protein content (as previously described in “Intracellular Reduced Glutathione Quantification”) and the results were expressed as a percentage of control cells. At least four independent experiments were performed, in duplicate.

| SMILES | total GSH intracellular levels ([1]; 250 μM) | total GSH intracellular levels ([1]; 10 μM) | JC-1 red/green ratio (mitochondrial membrane potential) [2] | ATP intracellular levels [3] |
| --- | --- | --- | --- | --- |
| COc1cc(CCN)c(OC)cc1Br [2C-B, 4-Bromo-2,5-dimethoxy-β-phenethylamine] | no significant alterations |  |  |  |
| COc1cc(CCNCc2ccccc2OC)c(OC)cc1Br [25B-NBOMe, 4-Bromo-2,5-dimethoxy-N-(2-methoxybenzyl)-β-phenethylamine] |  | drastically reduced the total GSH levels | the most operative drug in inducing mitochondrial membrane depolarization | completely depleted intracellular ATP levels |
| COc1cc([N+](=O)[O-])c(OC)cc1CCN [2C-N, 2,5-dimethoxy-4-nitrophenethylamine] |  |  |  | about 60 % of control cells |
